One assay deals with HUVEC. The assay can be described thus: Endothelial cell migration assay.
The test system of assay [1] is human tumour cell line A431 (epithelial carcinoma). The assay can be described thus: Tumour cell proliferation assay (methylene blue).
For assay [2], the system named is Human umbilical vein endothelial cells (HUVEC). The conditions noted are these: 30 μM.
The test system is the same in assay [3]. The assay can be described thus: cells.
Assay [4] concerns bFGF induced angiogenesis. The assay can be described thus: Growth factor impregnated subcutaneous chamber implant angiogenesis model in mice (bFGF). The format is in vivo. The conditions noted are these: 1, 10 and 100 μg/kg/day s.c., chambers removed 5 days after implantation. The method, then: (§1) Effect of Zoledronic Acid on Angiogenesis Induced by Growth Factor Impregnated, Subcutaneous Implants in Mice
(§2) Female mice (Tiflbm:MAG ) weighing 17 to 20 g were used. They were identified via ear markings and kept in groups (6 animals per cage) under normal conditions and observed daily. Six mice were used per treatment group in each experiment. All experiments were performed at least twice.
(§3) Porous tissue chambers made of perfluoro-alkoxy-Teflon (Teflon®-PFA, 21 mm×8 mm diameter, 550 μl volume) and perforated with 80 regularly spaced 0.8 mm holes were used. Both ends were sealed with removable caps of the same material. Four to six chambers were inserted in a silicon tube (12 mm diameter). […]
(§4) Five days after implantation, animals were anaesthetized (3% isoflurane) and sacrificed using an overdose of pentobarbitone (210 mg/kg i.p., Vetanarcol, Veterinaria AG, Zürich, Switzerland). Chambers were then taken out of the animal, the vascularized fibrous tissue that had formed around each implant was carefully removed, weighed and the total amount of blood was quantified by colorimetric determination of the haemoglobin concentration.
(§5) After addition of 2 ml of distilled water, tissue samples were homogenised for 1 min at 24000 rpm (Ultra Turrax T25). […] The absorbance at 540 mn (Uvikon 810 P) is proportional to the haemoglobin concentration. […]

Assay [5] relates to VEGF induced angiogenesis. The assay can be described thus: Growth factor impregnated subcutaneous chamber implant angiogenesis model in mice (VEGF). The format is in vivo. The conditions noted are these: highest dose tested, 100 μg/kg/day s.c. Here is the method: as §1, §2, §3, §4, §5

SMILES strings stand for the structures. Like-named read-outs stand apart in the source and are kept apart here.

Consider `O=C(O)CN(CCN(CC(=O)O)CC(=O)O)CC(=O)O` [EDTA], for which the “effect on HUVEC migration” value in the assay with HUVEC is listed as “no consistent effects”. The “inhibition of A431 proliferation” value in assay [1] (30 μM) amounted to 8.8%. Moreover, in assay [1] (tested dose range), the “effect on A431 proliferation in the tested dose range” value is on record as “no significant effect”. The “inhibition of HUVEC proliferation induced by FCS” value in assay [2] (FCS) stood at 23.7%. The “inhibition of HUVEC proliferation induced by VEGF” value in assay [2] (VEGF) is 55.6%. Further, the “inhibition of HUVEC proliferation induced by bFGF” value in assay [2] (bFGF) is recorded as 49.5%.

Turning to `O=P(O)(O)C(O)(Cn1ccnc1)P(=O)(O)O` [Zoledronate, 1-hydroxy-2-(imidazol-1-yl)ethane-1,1-diphosphonic acid], the “effect on HUVEC migration” value in the assay with HUVEC (30 μM) is recorded as “completely inhibited”; in the assay with HUVEC (concentrations of up to 10 μM, basal medium, serum or VEGF), “stimulated HUVEC migration”. In addition, the IC50 in assay [1] (Homo sapiens, A-431, 72 h, read-out: IC50, proliferation of A431) was found to be 1.35 µM; in assay [3] (read-out: IC50, VEGF-induced HUVEC proliferation), 6.9 ± 0.4 µM; in assay [3] (read-out: IC50, bFGF-induced HUVEC proliferation), 4.2 ± 0.4 µM; in assay [3] (read-out: IC50, serum-induced HUVEC proliferation), 4.1 ± 0.6 µM.

As to `O=P(O)(O)C(O)(Cn1ccnc1)P(=O)(O)O` [Zoledronic acid, 1-hydroxy-2-(imidazol-1-yl)ethane-1,1-diphosphonic acid], in assay [4] (blood content), the “approximate IC50, inhibition of bFGF-induced angiogenic response measured by blood content” value was ~3.1 µg/kg. The “approximate IC50, inhibition of bFGF-induced angiogenic response measured by weight” value in assay [4] (tissue weight) is ~2.5 µg/kg. In assay [5], the “inhibition of the VEGF-induced increase in blood content” value is “significant inhibition” and the “inhibition of the VEGF-induced increase in weight” value was “not in weight”.

The values are drawn from patent US20020142996A1, “Use of bisphosphonic acids for treating angiogenesis” (priority 1999, published 2002).
